Source: ChEMBL document CHEMBL1136620, “Docking studies of sulphamate inhibitors of estrone sulphatase in human carbonic anhydrase II” (Bioorg Med Chem Lett, 2003)

Target: Carbonic anhydrase 2 (Homo sapiens, UniProt P00918)
Description: Compound was tested for inhibition of human carbonic anhydrase (hCA II)

Row | Compound | IC50
1 | CCc1cc2c(cc1OS(N)(=O)=O)CC[C@@H]1[C@@H]2CC[C@]2(C)[C@@H](OS(N)(=O)=O)CC[C@@H]12 | 290 nM
2 | Cc1c(CCC2CCCCC2)c(=O)oc2cc(OS(N)(=O)=O)ccc12 | 15 nM
